From paper PMC13193486, “Phycocyanobilin biosynthesis in Galdieria sulphuraria requires isomerization of phycoerythrobilin synthesized by bilin reductases” (The Febs Journal, 2026)

Target: T1, CmPCYA (Cyanidioschyzon merolae, UniProt M1V4R9)
T1 construct: gene CYME_CMG110C; N-terminal GST-tag, pGEX-6P-1, co-expressed with pGro7 chaperones in E. coli BL21(DE3)
T1 sequence (M1V4R9 1-325): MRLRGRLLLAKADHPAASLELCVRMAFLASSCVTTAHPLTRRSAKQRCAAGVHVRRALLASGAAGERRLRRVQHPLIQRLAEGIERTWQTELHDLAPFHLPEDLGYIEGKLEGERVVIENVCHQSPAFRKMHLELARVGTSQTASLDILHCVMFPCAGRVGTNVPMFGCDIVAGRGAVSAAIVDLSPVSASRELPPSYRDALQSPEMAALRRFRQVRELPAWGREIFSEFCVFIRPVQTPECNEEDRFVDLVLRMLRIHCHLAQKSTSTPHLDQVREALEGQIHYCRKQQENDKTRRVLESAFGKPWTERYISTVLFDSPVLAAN
Experiment: anaerobic bilin reductase assay, HPLC
Type: biochemical
Conditions: BV as substrate; PetF, FNR, NADPH-regenerating system; 20 °C

SMILES: CC=C1C(=Cc2[nH]c(C=C3N=C(C=C4NC(=O)C(CC)=C4C)C(C)=C3CCC(=O)O)c(CCC(=O)O)c2C)NC(=O)C1C (stereo not shown) [PCB]
- anaerobic bilin reductase assay, HPLC: catalyzing the reduction of BV to PCB (Fig. 7B: CmPCYA)
